Experimental data taken from patent US20010041670A1, “Thrombospondin-binding region of histidine-rich glycoprotein and method of use” (priority 1999, published 2001).
Values belong to the substance of their own block, whether it stands above or below them.

How the values were obtained:
[1] = test system: Human dermal microvascular EC (HMVEC); assay: Tube formation assay on Matrigel; assay type: cell-based; conditions: Matrigel
Description: Tube Formation Assay. Early passage (P2 or P3) HMVEC in 0.2% MVGS were grown on 150 μl of Matrigel (Becton Dickinson, Bedford, Mass., USA) at 3×10^4 cells per well of 48-well plates. Reagents were added and cells were incubated at 5% CO2, 37° C. for 24 hours then photographed. Images were scanned and number of branched structures was counted using Scion Image software (Frederick, Md., USA).
HRGP inhibits the anti-angiogenic effect of TSP-1 in vitro. Microvascular EC were grown on Matrigel under low serum concentrations (0.2%) in the presence of bFGF (2 ng/ml), conditions which are known to induce tube formation. […] The anti-angiogenic activity of TSP-1 was abolished by the addition of HRGP (15 nM), which restored the ability of the EC to form tubular structures. (c).

[2] = test system: Human dermal microvascular EC (HMVEC); assay: Endothelial cell chemotaxis assay (modified Boyden chamber); assay type: cell-based; conditions: TSP-1 2 nM; 3 separate experiments
Description: Endothelial Cell (EC) chemotaxis assays were performed as described using a modified Boyden chamber with 8 μm gelatin-coated membranes (22). Briefly, confluent flasks of HMVEC were grown in 0.1% MVGS overnight and plated at 3×10^4 cells per well on a gelatinized porous membrane (Osmonics, Minnetonka, Minn., USA). Reagents were added to wells and cells were allowed to migrate at 5% CO2, 37° C. for 4 hours. Membranes were stained and the number of cells migrating was counted. Results were expressed as the percentage of maximum cells migrating towards bFGF (38-113 cells/10 high power fields) minus the number of cells migrating in the absence of bFGF (4-13cells/10 hpf).
HRGP inhibits the anti-chemotactic effect of TSP-1. Because the type I repeat also mediates the interaction of TSP-1 with HRGP, we studied the effect of HRGP on angiogenesis. EC migration towards bFGF was measured using a modified Boyden chamber with an 8 μm gelatin-coated membrane in the presence and absence of TSP-1 (2 nM) and increasing concentrations of HRGP (0-100 nM). Data from 3 separate experiments are expressed as a percentage of migration in the presence of bFGF alone. We measured migration of CD36-expressing microvascular EC towards bFGF. The addition of TSP-1 inhibited bFGF-induced migration of EC (approx. 30%±3% of control 100% value without added TSP-1). […]

C57B1/6 mice = assay: In vivo subcutaneous Matrigel plug assay
Description: In vivo subcutaneous Matrigel plug assays were performed as described (23). Briefly, 500 μl of Matrigel mixed with proteins or growth factors was injected subcutaneously near the abdominal midline of C57B1/6 mice. Gels were removed after 10 days, fixed in 1% paraformaldehyde, embedded in paraffin, sectioned, and stained with hematoxylin and eosin. Immunohistochemistry was performed on unstained sections using an anti-human von Willebrand factor (vWF) IgG (Dako, Glostrup, Denmark) or isotype-matched control (Sigma) and a biotin-streptavidin-peroxidase antibody and development system (Vector Laboratories, Burlingame, Calif.) as described (24) and counterstained with Mayer's hematoxylin (ImmunoGenex, San Ramon, Calif., USA). After scanning, the degree of angiogenesis was determined by counts of vWF-positive blood vessels using Scion Image. For breast tissue, frozen sections of freshly obtained human breast carcinoma were incubated with rabbit antibody to HRGP or CSVTCG or murine monoclonal antibody to TSP, or isotype-matched controls (Sigma), and developed as above. These studies were approved by the Institutional Animal Use Committee.
Matrigel mixed was injected subcutaneously into the midline of mice and resulting plugs were harvested after 10 days, fixed, and paraffin embedded, sectioned, stained with. hematoxylin and eosin, and photographed at 200× magnification. […]

CD36 null mice = assay: In vivo corneal angiogenesis assay, CD36 null mice
Description: (§1) FIG. 3. HRGP abrogates the effect of endogenous TSP in the corneal angiogenesis assay. Pellets containing bFGF at various doses with and without HRGP (50 ng) were implanted into the corneas of wild type C57BL/6 (closed symbols) or CD 36 null mice (open symbols), and area of neovascularization was measured after five days. HRGP (--●--) augmented the dose-dependent effect of bFGF (—▪—) in the wild type mice (p=0.0004 by ANOVA). In CD36 null mice, there was an enhanced dose response to bFGF (—□—) (p=0.01), but no effect seen with the addition of HRGP (--◯--). Results represent mean±SE of>6 replicates.
(§2) In vivo corneal angiogenesis assays. Pellets composed of hydron (Hydro Med Sciences, Cranbury, N.J.) and sucralfate (Teva Pharmaceuticals, North Wales, Pa.) were mixed with proteins or growth factors, and were prepared and implanted into the comeas of C57B1/6 mice as described (38). After 5 days, eyes were viewed under a dissecting microscope and photographed with a Sony DKC-1000 digital camera. The area of neovascularization was calculated by measuring vessel length from limbus towards the pellet and number of clock hours of vascularization as described (39, 40). Studies were approved by the Institutional Animal Use Committee.
In fact, the dose response curve of bFGF in wild type mice in the presence of HRGP was similar to that seen with bFGF alone in the CD36 null mice. […]

wild type C57BL/6 mice = assay: In vivo corneal angiogenesis assay, wild type mice
Description: as §1, §2
In a second type of in vivo experiment, hydron/sucralfate pellets containing bFGF, TSP-1, and/or HRGP were implanted in the corneas of C57B1/6 mice. […]

[3] = biological target: T1, 125I-TSP-1 binding to HRGP (Homo sapiens, UniProt P07996); assay: Solid phase binding assay, competition with CD36 fusion proteins; conditions: increasing concentrations of fusion protein
T1 construct: TSP-1 was purified from human platelet releasate; from tissue; host or cells: TSP-1 from human platelet releasate; HRGP from human plasma
T1 sequence (P07996 19-1170): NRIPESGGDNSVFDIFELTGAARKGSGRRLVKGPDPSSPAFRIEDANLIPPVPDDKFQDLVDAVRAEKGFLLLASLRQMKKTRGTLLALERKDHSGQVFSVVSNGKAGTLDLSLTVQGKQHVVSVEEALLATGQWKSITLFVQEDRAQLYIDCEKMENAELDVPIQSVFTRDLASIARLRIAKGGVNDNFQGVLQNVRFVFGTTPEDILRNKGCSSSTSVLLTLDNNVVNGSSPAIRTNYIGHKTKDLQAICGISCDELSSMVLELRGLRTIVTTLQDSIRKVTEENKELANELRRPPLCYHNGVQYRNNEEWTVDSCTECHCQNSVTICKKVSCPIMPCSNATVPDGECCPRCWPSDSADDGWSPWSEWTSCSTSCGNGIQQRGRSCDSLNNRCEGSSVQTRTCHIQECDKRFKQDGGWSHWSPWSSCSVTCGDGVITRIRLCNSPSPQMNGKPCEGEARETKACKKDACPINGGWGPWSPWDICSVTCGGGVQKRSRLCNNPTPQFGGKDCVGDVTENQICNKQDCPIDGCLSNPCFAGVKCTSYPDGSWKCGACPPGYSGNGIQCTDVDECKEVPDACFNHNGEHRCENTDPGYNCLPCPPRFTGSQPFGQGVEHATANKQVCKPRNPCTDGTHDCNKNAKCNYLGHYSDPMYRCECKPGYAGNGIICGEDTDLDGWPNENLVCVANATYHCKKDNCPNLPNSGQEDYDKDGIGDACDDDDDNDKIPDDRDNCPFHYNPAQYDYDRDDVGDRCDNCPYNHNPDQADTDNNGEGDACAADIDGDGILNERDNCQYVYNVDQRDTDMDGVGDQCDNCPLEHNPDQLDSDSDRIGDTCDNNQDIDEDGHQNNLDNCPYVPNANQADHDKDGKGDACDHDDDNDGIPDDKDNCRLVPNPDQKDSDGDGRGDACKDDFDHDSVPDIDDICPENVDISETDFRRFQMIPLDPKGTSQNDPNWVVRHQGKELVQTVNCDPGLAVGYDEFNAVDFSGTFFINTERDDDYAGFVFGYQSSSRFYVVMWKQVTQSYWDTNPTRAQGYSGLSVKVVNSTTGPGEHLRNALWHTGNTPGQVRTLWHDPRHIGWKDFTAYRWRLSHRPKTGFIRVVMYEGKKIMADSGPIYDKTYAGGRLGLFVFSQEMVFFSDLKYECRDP
Description: Solid phase binding assays were performed as described (18). Briefly, HRGP in carbonate buffer was immobilized on 96-well strips (Immulon-4 Remove-a-well, Dynatech Laboratories Inc., Burlington, Mass., USA) overnight at 4° C. After blocking with 1% BSA, ^125I-TSP-1 was incubated in the presence of varying concentrations of CD36-FP in triplicate, and bound radioactivity was quantified on a gamma counter. Non-specific binding was determined by carrying out binding in the presence of excess unlabeled ligand.
TSP-1 binding to HRGP: competition with CD36.

binding of HRGP to TSP-1 = biological target: T2, binding of HRGP to TSP-1 (Homo sapiens, UniProt P04196); assay: ELISA of HRGP binding to immobilized TSP-1 in presence of peptides; conditions: for inhibition of binding of HRGP to immobilized TSP-1: peptide 50 μM
T2 construct: from tissue; host or cells: HRGP from human plasma; TSP-1 from human platelet releasate
T2 sequence (P04196 19-525): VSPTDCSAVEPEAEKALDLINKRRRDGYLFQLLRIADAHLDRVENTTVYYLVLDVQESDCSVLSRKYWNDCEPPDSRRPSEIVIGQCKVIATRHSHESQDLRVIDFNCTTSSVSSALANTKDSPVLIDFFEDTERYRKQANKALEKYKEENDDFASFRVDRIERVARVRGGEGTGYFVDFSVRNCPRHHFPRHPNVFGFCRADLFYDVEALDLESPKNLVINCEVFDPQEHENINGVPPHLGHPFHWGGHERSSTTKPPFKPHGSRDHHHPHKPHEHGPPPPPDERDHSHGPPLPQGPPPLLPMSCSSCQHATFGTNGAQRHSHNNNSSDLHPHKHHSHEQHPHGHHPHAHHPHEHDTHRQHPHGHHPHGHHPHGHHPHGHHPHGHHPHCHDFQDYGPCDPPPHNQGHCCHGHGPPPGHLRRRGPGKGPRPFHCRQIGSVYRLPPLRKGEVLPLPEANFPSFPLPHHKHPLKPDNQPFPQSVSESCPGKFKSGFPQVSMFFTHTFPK
Description: (§3) Enzyme-linked immunosorbent assays (ELISA) were performed as described (6). Briefly, TSP-1 (4μg/ml) in coating buffer (0.5M sodium carbonate, pH 9.6) was applied to microtiter plates (Becton Dickinson, Lincoln Park, N.J., USA) for 3 hours at 37° C. After washing with wash buffer (0.05% Tween in 20 mM Tris, 150mM NaCl, pH 7.5), and blocking for 1 hour at 37° C. with 1% BSA in Tris-Tween, HRGP in varying amounts in the presence and absence of peptide was added for 18h at 4° C. After washing, alkaline phosphatase-conjugated anti-HRGP or nonimmune rabbit Fab'2 was added for 3h at 37° C., after which p-nitrophenyl phosphate substrate was added and optical density (OD) at 405 nm was read in a microplate reader (Molecular Devices, Menlo Park, Calif., USA).
(§4) HRGP or plasminogen binding to TSP-1 immobilized on plastic wells was measured by enzyme-linked immunosorbent assay (ELISA) as described above, using an alkaline phosphatase-conjugated anti-HRGP antibody and p-nitrophenyl phosphate substrate.
(§5) As an additional control, the binding of plasminogen to TSP-1 was measured.
Varying amounts of HRGP were added alone or in the presence of increasing concentrations of the peptide CSVTCG to TSP-1 coated wells. Binding was measured by ELISA as described above.

[4] = biological target: binding of plasminogen to TSP-1 (Homo sapiens, UniProt P00747); conditions: ELISA; control interaction
binding of plasminogen to TSP-1, sequence (P00747 20-810 limits assumed): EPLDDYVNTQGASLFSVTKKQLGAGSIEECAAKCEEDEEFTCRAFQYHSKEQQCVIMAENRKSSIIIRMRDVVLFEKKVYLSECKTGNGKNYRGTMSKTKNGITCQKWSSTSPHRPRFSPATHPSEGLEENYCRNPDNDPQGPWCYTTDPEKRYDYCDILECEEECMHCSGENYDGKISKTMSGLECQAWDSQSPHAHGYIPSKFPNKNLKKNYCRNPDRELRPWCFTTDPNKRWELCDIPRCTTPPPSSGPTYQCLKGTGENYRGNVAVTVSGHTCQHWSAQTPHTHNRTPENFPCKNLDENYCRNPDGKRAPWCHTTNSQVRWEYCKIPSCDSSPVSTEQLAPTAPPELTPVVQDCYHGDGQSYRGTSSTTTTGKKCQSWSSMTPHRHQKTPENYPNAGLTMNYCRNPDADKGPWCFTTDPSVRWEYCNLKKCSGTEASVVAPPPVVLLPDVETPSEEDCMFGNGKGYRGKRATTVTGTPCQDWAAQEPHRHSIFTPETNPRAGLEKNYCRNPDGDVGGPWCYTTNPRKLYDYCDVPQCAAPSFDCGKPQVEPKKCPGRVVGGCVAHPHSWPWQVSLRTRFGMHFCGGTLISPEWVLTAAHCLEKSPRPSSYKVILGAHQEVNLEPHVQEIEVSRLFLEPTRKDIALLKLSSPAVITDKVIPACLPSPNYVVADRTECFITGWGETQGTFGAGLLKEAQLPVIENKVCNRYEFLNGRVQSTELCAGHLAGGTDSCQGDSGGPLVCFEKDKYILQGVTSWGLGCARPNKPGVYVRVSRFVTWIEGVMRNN
Description: as §3, §4, §5

[5] = biological target: T3, binding of radiolabelled HRGP to TSP-1 (Homo sapiens, UniProt P04196); assay: Ligand blot of radiolabelled HRGP on TSP-1; conditions: autoradiography; CSVTCG peptide at 50 μM
T3 construct: TSP-1 was purified from human platelet releasate; from tissue; host or cells: HRGP from human plasma; TSP-1 from human platelet releasate
T3 sequence (P04196 19-525): T2 sequence (P04196 19-525)
Description: Ligand Blot: TSP-1 was resolved on an SDS-polyacrylamide gel and electrophoretically blotted onto a polyvinylidene difluoride (PVDF) membrane. The membrane was blocked with 150 mM NaCl, 20 mM Tris (TBS) containing 5% BSA. Following three washes with TBS, washes the membranes were cut into strips and incubated with ligand(s) diluted in TBS, 0.1% BSA for 1 hour, washed, and developed by autoradiography.
Ligand blots show binding of radiolabelled HRGP to TSP-1 that had been subjected to SDS-PAGE and transferred to nitrocellulose, then developed by autoradiography.

Substance: TSP-1: 450 kDa homotrimeric adhesive glycoprotein purified from human platelet releasate; inhibitor of angiogenesis
effect on bFGF-induced tube formation by EC ([1]; TSP-1 2 nM, bFGF 2 ng/ml, 0.2% serum): inhibited
EC migration towards bFGF, percentage of control without added TSP-1 [2]: approx. 30%±3%
blood vessels/mm^2, % of that seen with bFGF (C57B1/6 mice; TSP-1 added to bFGF in Matrigel, 10 days): 14±8%
inhibition of bFGF-induced angiogenesis (CD36 null mice; CD36 null mice): did not inhibit

Substance: bFGF: Recombinant human basic fibroblast growth factor
induction of tube formation ([1]; agent alone, low serum): induced tube formation
angiogenesis in Matrigel plug (histology) (C57B1/6 mice; plugs harvested after 10 days, representative images of 4 experiments): stimulated angiogenesis
Area of Neovascularization (mm^2) ± SE (wild type C57BL/6 mice; Wild type mouse, corneal pellet, 5 days): 2.35 ± 0.10 mm^2
eyes with vigorous outgrowth of blood vessels (angiogenesis) (wild type C57BL/6 mice; pellets: bFGF 50 ng, TSP-1 200 ng, HRGP 100 ng, after 5 days): 13/13
Area of Neovascularization (mm^2) ± SE (CD36 null mice; CD36 −/− mouse, corneal pellet, 5 days): 2.10 ± 0.14 mm^2

Substance: TVSGCC: scrambled peptide control
inhibition of binding of HRGP to immobilized TSP-1 (binding of HRGP to TSP-1): not and had no effect

Substance: cysteine-serine-valine-threonine-cysteine-glycine [CSVTCG]
peptide concentration at which inhibition of HRGP binding to TSP-1 reached maximum (binding of HRGP to TSP-1; concentration-dependent inhibition): 50 µM
inhibition of binding of HRGP to immobilized TSP-1 (binding of HRGP to TSP-1): inhibited
inhibition of binding of plasminogen to TSP-1 [4]: not inhibited
binding of radiolabelled HRGP to TSP-1 resolved on SDS-PAGE and blotted [5]: completely abolished

Other lines, results leading:

inhibition of 125I-TSP-1 binding to immobilized HRGP [3]: inhibited
Substance: CD36 FP93-120: CD36-glutathione-S-transferase (GST) fusion protein shown to bind TSP-1 (YRVRFLAKENVTQDAEDNTVSFLQPNGA; left off: a dimerising Fc or GST)

inhibition of binding of HRGP to immobilized TSP-1 (binding of HRGP to TSP-1): not and had no effect
Substance: RGDS: control TSP-1 peptide

inhibition of 125I-TSP-1 binding to immobilized HRGP [3]: had no effect
Substance: GST: glutathione-S-transferase alone, control
